This test has as its target T1, acetylcholine muscarinic M1 receptor (CHOnfat/hM1 cells) (Homo sapiens, UniProt P11229).
T1 construct: expressed in transfected cells; host or cells: CHOnfat cells (CHO, Geneticin selection)
T1 sequence (P11229 1-460): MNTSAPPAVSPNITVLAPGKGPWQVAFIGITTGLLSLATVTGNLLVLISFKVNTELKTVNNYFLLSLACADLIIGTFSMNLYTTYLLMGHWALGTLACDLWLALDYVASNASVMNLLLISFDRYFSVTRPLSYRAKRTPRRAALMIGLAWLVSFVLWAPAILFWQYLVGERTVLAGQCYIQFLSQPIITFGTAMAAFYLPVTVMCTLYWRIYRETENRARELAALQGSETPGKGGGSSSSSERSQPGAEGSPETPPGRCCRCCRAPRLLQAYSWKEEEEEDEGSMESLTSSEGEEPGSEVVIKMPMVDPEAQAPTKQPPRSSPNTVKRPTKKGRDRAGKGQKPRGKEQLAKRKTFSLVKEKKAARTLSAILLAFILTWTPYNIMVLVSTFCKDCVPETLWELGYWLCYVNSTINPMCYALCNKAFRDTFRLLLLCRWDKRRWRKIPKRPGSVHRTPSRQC
As to the kind of experiment: muscarinic FLIPR assay: intracellular calcium, potentiation of an EC20 concentration of acetylcholine. Format: cell-based. As to conditions: FLIPR Ca2+, 4 min preincubation, then EC20 acetylcholine (3 nM final), read-out: IP Value (inflection point). The protocol: The assay studies the effect of one or several concentrations of test compounds on basal or acetylcholine-stimulated Ca^2+ levels using FLIPR.
Compounds are prepared and subjected to a preincubation period of 4 min. Thereafter, a single EC20 concentration of acetylcholine is added to each well (3 nM final). The intracellular Ca^2+ level of each sample is measured and compared to an acetylcholine control to determine any modulatory activity.
Cells: CHOnfat/hM1, hM2, hM3 or hM4 cells are plated 24 hr before the assay at a density of 18,000 cells/well (100 μL) in a 384 well plate. CHOnfat/hM1 and CHOnfat/hM3 Growth Medium: 90% DMEM (Hi Glucose); 10% HI FBS; 2 mM L-glutamine; 0.1 mM NEAA; Pen-Strep; and 1 mg/ml Geneticin, are added. For M2Gqi5CHOnfat and M4Gqi5CHOnfat cells, an additional 600 μg/ml hygromycin is added.
Equipment: 384 well plate, 120 μL addition plate; 96-well Whatman 2 ml Uniplate Incubator, 37° C., 5% CO2; Skatron EMBLA-384 Plate Washer; Multimek Pipetting System; Genesis Freedom 200 System; Mosquito System; Temo Nanolitre Pipetting System; and FLIPR^384 Fluorometric Imaging Plate Reader System are used.
Buffers. Assay Buffer: Hanks Balanced Salt Solution, with 20 mM Hepes, 2.5 mM Probenecid (Sigma P-8761) first dissolved in 1 N aqueous NaOH, 1% Bovine Serum Albumin (Sigma A-9647). Dye Loading Buffer: Assay Buffer plus 1% Fetal Bovine Serum and Fluo-4AM/Pluronic Acid Mixture. 2 mM Fluo-4AM ester stock in DMSO (Molecular Probes F-14202) Concentration of 2 μM in buffer for a final concentration of 1 μM in Assay. 20% Pluronic Acid Solution stock, with a concentration of 0.04% in Buffer, 0.02% in Assay.
65 μL of 2 mM Fluo-4AM are mixed with 130 μL of 20% Pluronic Acid. The resulting solution and 650 μL FBS is added to the assay buffer for a total volume of 65 mL. Positive Controls: 4-Br-A23187: 10 mM in DMSO; final concentration 10 μM. Acetylcholine: 10 mM in water, working stock at both 20 μM and 30 μM in assay buffer, final concentration of 10 μM. This is used to check the maximum stimulation of the CHOK1/hM1 cells. 20 μM (2×) acetylcholine is added in the preincubation part of the assay, and the 30 μM (3×) stock is added in the second part. (EC20)Acetylcholine: 10 mM in water, working stock of 9 nM (3×), and final concentration in assay is 3 nM. This is used after the preincubation with test compounds. Addition of the EC20 Acetylcholine to each well with a test compound will ascertain any modulator activity. 24 wells contain 3 nM Acetylcholine alone as a control.
Screening Plate: Compounds are titrated in 96-well plates (columns 2-11), 100% DMSO, started at a concentration of 15 mM (150× stock concentration), and 3-fold serial dilutions using Genesis Freedom200 System. Four 96-well plates are combined into a 384-well plate using Mosquito Nanolitre Pipetting System by transferring 1 μl of serial diluted compounds to each well, and 1 mM acetylcholine (100× stock concentration) were added as a control. Using Temo, 49 μl assay buffer is added to each well of the 384-well plate right before assay.
In a 96-well Whatman 2 ml Uniplate, 9 nM Acetylcholine (3×) is pipetted into wells corresponding to the screening compounds and into control wells. The 30 μM acetylcholine control (3×) is added into control wells and the 3× agonist plate is transferred into a 384-well plate.
Cells are washed three times with 100 μL of buffer, leaving 30 μL of buffer in each well. Using Multimek, 30 μL of Dye Loading Buffer is added into each well and incubated at 37° C., 5% CO2 for up to one hr.
After 60 min, the cells are washed three times with 100 μL of buffer, leaving 30 μL of buffer in each well. The cell plate, screening plate, and agonist addition plates are placed on the platform in the FLIPR and the door is closed. A signal test to check background fluorescence and basal fluorescence signal is performed. Laser intensity is adjusted if necessary. […]

Structures are written as SMILES.

As for `O=C(O)c1cn(Cc2ccc(-n3ccc(CF)n3)cc2)c2cccc(F)c2c1=O` [Example 152, 5-Fluoro-1-{4-[3-(fluoromethyl)-1H-pyrazol-1-yl]benzyl}-4-oxo-1,4-dihydroquinoline-3-carboxylic acid], the EC50 was found to be 41 nM. Regarding `O=C(O)c1cn(Cc2ccc(-n3cnc(-c4ccccc4)c3)cc2)c2cccc(F)c2c1=O` [Example 31], the EC50 was found to be 40 nM.

As for `O=C(O)c1cn(Cc2ccc(-n3cccn3)cc2)c2c(F)ccc(F)c2c1=O` [Example 1], the EC50 was determined as 261 nM. The same measure for `O=C(O)c1cn(Cc2ccc(-n3ncc4ccccc43)cc2F)c2c(F)cccc2c1=O` [Example 112]: 97 nM. As to `O=C(O)c1cn(Cc2ccc(-n3cc(CO)cn3)cc2)c2cccc(F)c2c1=O` [Example 59], the EC50 stood at 39 nM. Consider `CCOC(=O)c1cn(Cc2ccc(-n3ccc(C(F)F)n3)cc2)c2cccc(F)c2c1=O` [Example 153, Ethyl 1-{4-[3-(difluoromethyl)-1H-pyrazol-1-yl]benzyl}-5-fluoro-4-oxo-1,4-dihydroquinoline-3-carboxylate], for which the EC50 worked out at 749 nM. The same measure for `O=C(O)c1cn(Cc2ccc(-n3cc(CCO)cn3)cc2)c2cccc(F)c2c1=O` [Example 19]: 32 nM; for `CCOC(=O)c1cn(Cc2ccc(-n3ccc(C(C)O)n3)cc2)c2cccc(F)c2c1=O` (centres unmarked) [Example 151, Ethyl 5-fluoro-1-{4-[3-(1-hydroxyethyl)-1H-pyrazol-1-yl]benzyl}-4-oxo-1,4-dihydroquinolin-3-carboxylate]: 78 nM.

On to `O=C(O)c1cn(Cc2ccc(N3CCCC3=O)cc2)c2cccc(F)c2c1=O` [Example 3, 5-Fluoro-4-oxo-1-[4-(2-oxopyrrolidin-1-yl)benzyl]-1,4-dihydroquinoline-3-carboxylic acid], for which the EC50 came to 2500 nM. Under `Cc1nccn1-c1ccc(Cn2cc(C(=O)O)c(=O)c3cccc(F)c32)c(F)c1` [Example 109] stands 181 nM; under `O=C(O)c1cn(Cc2ccc(-n3cc(CF)cn3)cc2)c2cccc(F)c2c1=O` [Example 62], 31 nM; under `CNc1ccc(Cn2cc(C(=O)O)c(=O)c3c(F)cccc32)cc1` [Example 149, 5-Fluoro-1-[4-(methylamino)benzyl]-4-oxo-1,4-dihydroquinoline-3-carboxylic acid], 749 nM.

Take `CCOC(=O)c1cn(Cc2ccc(-n3cc(C#N)cn3)cc2)c2cccc(F)c2c1=O` [Example 155, Ethyl 1-[4-(4-cyano-1H-pyrazol-1-yl)benzyl]-5-fluoro-4-oxo-1,4-dihydroquinoline-3-carboxylate]: the EC50 worked out at 378 nM. As to `CC(=O)c1cn(-c2ccc(Cn3cc(C(=O)O)c(=O)c4cccc(F)c43)c(F)c2)c2ccccc12` [Example 120], the EC50 amounted to 45 nM. On to `O=C(O)c1cn(Cc2ccc(-n3ccnc3)cc2)c2cccc(F)c2c1=O` [Example 6], for which the EC50 is 102 nM. As to `O=C(O)c1cn(Cc2ccc(-n3cnc4ccccc43)cc2)c2c(F)ccc(F)c2c1=O` [Example 2], the EC50 was determined as 58 nM. Regarding `C=Cc1cnn(-c2ccc(Cn3cc(C(=O)OCC)c(=O)c4c(F)cccc43)cc2)c1` [Example 156, Ethyl 5-fluoro-4-oxo-1-[4-(4-vinyl-1H-pyrazol-1-yl)benzyl]-1,4-dihydroquinoline-3-carboxylate], the EC50 stood at 25 nM. Take `CN(C)c1ccc(Cn2cc(C(=O)O)c(=O)c3c(F)cccc32)cc1` [Example 150, 1-[4-(dimethylamino)benzyl]-5-fluoro-4-oxo-1,4-dihydroquinoline-3-carboxylic acid]: the EC50 stood at 1070 nM.

`O=C(O)c1cn(Cc2ccc(-n3ccc4ncccc43)cc2)c2cccc(F)c2c1=O` [Example 36]: the EC50 was found to be 40 nM.

On to `CC(C)C(=O)Nc1ccc(Cn2cc(C(=O)O)c(=O)c3c(F)cccc32)cc1` [Example 4, 5-Fluoro-1-[4-(isobutyrylamino)benzyl]-4-oxo-1,4-dihydroquinoline-3-carboxylic acid], for which the EC50 is 308 nM.

Values taken from patent US8426598B2, “N-heterocyclic M1 receptor positive allosteric modulators” (Merck, Sharp & Dohme, Corp., priority 2008, dated 2013).
